From patent US9481648B2, “Kinase inhibitors” (Respivert Limited, priority 2013, dated 2016)
Where two headings read alike, the source gives them in different places.

Assays:
[1] = test system: PBMCs; experiment: LPS-induced TNFα/IL-8 release in PBMC cells (assay b); format: cell-based, human; conditions: LPS-stimulated, read-out: IC50 Values for Inhibition of Cytokine Release PBMCs IL-8
Protocol: Peripheral blood mononuclear cells (PBMCs) from healthy subjects are separated from whole blood using a density gradient (Lymphoprep, Axis-Shield Healthcare). The PBMCs are seeded in 96 well plates and treated with compounds at the desired concentration for 2 hours before addition of 1 ng/mL LPS (Escherichia Coli 0111:B4 from Sigma Aldrich) for 24 hours under normal tissue culture conditions (37° C., 5% CO2). The supernatant is harvested for determination of IL-8 and TNFα concentrations by sandwich ELISA (Duo-set, R&D systems) and read on the fluorescence microplate reader (Varioskan® Flash, ThermoFisher Scientific).

[2] = target: GSK 3α (Homo sapiens (Human), UniProt P49840); experiment: GSK 3α enzyme inhibition (FRET, Z-LYTE; Method 2); format: biochemical; conditions: read-out: IC50 Values for Enzyme Inhibition GSK3α
Chain of GSK 3α (P49840 whole entry): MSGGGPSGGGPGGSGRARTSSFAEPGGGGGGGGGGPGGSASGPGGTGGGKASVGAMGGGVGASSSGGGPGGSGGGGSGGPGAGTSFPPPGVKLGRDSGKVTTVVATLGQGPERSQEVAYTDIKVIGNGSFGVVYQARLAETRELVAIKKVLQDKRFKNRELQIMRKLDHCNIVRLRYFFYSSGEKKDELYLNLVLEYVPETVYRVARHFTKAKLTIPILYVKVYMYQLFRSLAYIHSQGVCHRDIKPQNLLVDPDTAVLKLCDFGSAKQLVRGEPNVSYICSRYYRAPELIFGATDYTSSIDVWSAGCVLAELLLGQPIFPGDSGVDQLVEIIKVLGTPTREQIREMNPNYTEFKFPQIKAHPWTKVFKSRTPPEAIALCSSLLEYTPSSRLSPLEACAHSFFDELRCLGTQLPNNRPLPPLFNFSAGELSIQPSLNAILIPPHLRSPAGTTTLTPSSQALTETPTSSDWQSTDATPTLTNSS
In short: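 Z-LYTE FRET assay: GSK3-α (500 ng/mL stock) preincubated 105 min at RT with compound at 10, 1, 0.1 or 0.01 μg/mL stock. FRET peptide (8 μM stock) and ATP (40 μM stock) were then added for 1 h, followed by protease development for 1 h. Phosphorylation was read as coumarin/fluorescein emission ratio.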

[3] = target: CYP2C9 (Homo sapiens (Human), UniProt P11712); experiment: CYP2C9 inhibition study; format: in vitro ADME; conditions: 5 μM (precipitation at 15 μM)
Chain of CYP2C9 (P11712 whole entry): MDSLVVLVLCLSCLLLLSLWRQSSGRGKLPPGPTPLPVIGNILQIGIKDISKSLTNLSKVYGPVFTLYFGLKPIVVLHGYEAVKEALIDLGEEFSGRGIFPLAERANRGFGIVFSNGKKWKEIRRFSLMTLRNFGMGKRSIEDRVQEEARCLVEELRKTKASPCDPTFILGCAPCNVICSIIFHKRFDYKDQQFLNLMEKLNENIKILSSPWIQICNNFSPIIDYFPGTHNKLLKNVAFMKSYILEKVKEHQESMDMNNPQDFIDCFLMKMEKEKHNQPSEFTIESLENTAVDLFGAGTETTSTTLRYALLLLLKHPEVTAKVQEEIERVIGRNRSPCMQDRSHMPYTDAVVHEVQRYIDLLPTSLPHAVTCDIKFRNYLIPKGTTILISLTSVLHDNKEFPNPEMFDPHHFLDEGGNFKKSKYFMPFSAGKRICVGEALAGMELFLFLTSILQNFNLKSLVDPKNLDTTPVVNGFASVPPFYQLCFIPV
Protocol: (§1) Assessment of certain in vitro ADME (absorption, distribution, metabolism, and excretion) parameters for certain compounds of the invention was conducted by BioFocus (Saffron Walden, UK).

[4] = target: CYP3A4 (Homo sapiens (Human), UniProt P08684); experiment: CYP3A4 inhibition study; format: in vitro ADME; conditions: 15 μM
Chain of CYP3A4 (P08684 whole entry): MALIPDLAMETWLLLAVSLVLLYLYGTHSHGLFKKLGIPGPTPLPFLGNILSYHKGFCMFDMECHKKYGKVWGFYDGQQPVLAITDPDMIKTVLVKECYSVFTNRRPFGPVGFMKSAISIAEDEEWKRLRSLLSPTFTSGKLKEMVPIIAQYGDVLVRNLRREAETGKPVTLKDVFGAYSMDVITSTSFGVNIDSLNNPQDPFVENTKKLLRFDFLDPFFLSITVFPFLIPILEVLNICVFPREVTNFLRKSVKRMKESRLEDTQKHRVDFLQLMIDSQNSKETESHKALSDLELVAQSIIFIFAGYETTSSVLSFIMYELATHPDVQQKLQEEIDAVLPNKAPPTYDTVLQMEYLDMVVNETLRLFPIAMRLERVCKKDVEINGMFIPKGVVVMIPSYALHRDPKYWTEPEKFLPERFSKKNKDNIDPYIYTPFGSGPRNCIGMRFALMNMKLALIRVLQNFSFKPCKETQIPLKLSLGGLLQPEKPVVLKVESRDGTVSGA
Protocol: as §1

[5] = Hydrolytic stability study; format: physicochemical; conditions: for % Parent Remaining: DMSO:water (3:1), 1 mg/mL
Protocol: Chemical stability of compounds of the invention was assessed in a mixture of DMSO and water (3:1) at a test compound concentration of 1 mg/mL
Sample Preparation • A 1.0 mg sample of test compound was dissolved in 750 μL of DMSO. Water (250 μL) was added slowly, ensuring no precipitation occurred.
Recording Stability • A 50 μL aliquot of the test solution was removed and analysed in duplicate by 5 μL HPLC injections. The peak area for the test compound was recorded following manual integration of the corresponding UV trace. • The test solution was heated to 60° C., with stirring, and 50 μL aliquots removed for HPLC analysis at 5 and 24 h timepoints.

With `COc1c(NC(=O)Nc2ccc(Oc3ccnc(Nc4ccccc4)c3)c3ccccc23)cc(C(C)(C)C)cc1C(=O)N[C@H]1CCOC1` [84(d), 3-[[4-[(2-Anilino-4-pyridyl)oxy]-1-naphthyl]carbamoylamino]-5-tert-butyl-2-methoxy-N-[(3S)-tetrahydrofuran-3-yl]benzamide] the IC50 ([1]; Homo sapiens, PBMC) was 11.5 nM and the IC50 [2] was 6280 nM.

`COCCOCCOCCOCCNC(=O)c1cc(Nc2cc(Oc3ccc(NC(=O)Nc4cc(C(C)(C)C)cc(NS(C)(=O)=O)c4OC)c4ccccc34)ccn2)cc(OC)c1` [Example 85(v), 3-[[4-[[4-[[5-tert-Butyl-3-(methanesulfonamido)-2-methoxyphenyl]-carbamoylamino]-1-naphthyl]oxy]-2-pyridyl]amino]-5-methoxy-N-[2-[2-[2-(2-methoxyethoxy)ethoxy]ethoxy]-ethyl]benzamide] gave an IC50 [1] of 0.4 nM and an IC50 [2] of 2520 nM.

For `C#CC(C)(C)c1cc(NC(=O)Nc2ccc(Oc3ccnc(Nc4cc(C)c5[nH]ncc5c4)n3)c3ccccc23)n(-c2ccc(C)cc2)n1` [Ref Cpd A], the “% Inh (inhibition at 5 μM reported instead)” value ([3]; CYP2C9, 0 min preincubation) was 31^[†] %, the “% Inh (inhibition at 5 μM reported instead)” value ([3]; CYP2C9, 30 min preincubation) was 66^[†] % and the “15 μM % Inh” value ([4]; CYP3A4, 0 min preincubation) was 41%. For the same compound, the “15 μM % Inh” value ([4]; CYP3A4, 30 min preincubation) was 92%.

In the case of `C#Cc1cc(Nc2nccc(Oc3ccc(NC(=O)Nc4cc(C(C)C)nn4-c4ccc(C)cc4)c4ccccc34)n2)cc(C(=O)NCCN2CCOCC2)c1` [Reference Compound B, 3-ethynyl-5-((4-((4-(3-(3-isopropyl-1-(p-tolyl)-1H-pyrazol-5-yl)ureido)naphthalen-1-yl)oxy)pyrimidin-2-yl)amino)-N-(2-morpholinoethyl)benzamide, reference compound], the “decomposition under the conditions of the hydrolytic stability experiment” value ([5]; 1 mg/mL in DMSO and water (3:1), 60° C., 5 and 24 h) is reported as “substantial decomposition”, the “% Parent Remaining” value ([5]; 0 min) is reported as 100% and the “% Parent Remaining” value ([5]; 60° C., 300 min) is reported as 82%. The “% Parent Remaining” value ([5]; 60° C., 1440 min) was 36%.
